Experimental data published in EP0509845A1, “(+) and (-) enantiomers of 5-aliphatic-6-(benzoxazinyl- or benzothiazinyl)-2,3,4,5-tetrahydropyridazin-3-ones” (ORTHO PHARMACEUTICAL CORPORATION, priority 1991, dated 1992).
Like-named read-outs stand apart in the source and are kept apart here.

Molecular target: T1, canine cardiac cyclic nucleotide phosphodiesterase (PDE) fraction III (Canis lupus familiaris, UniProt A0A8I3NYE0)
T1 construct: The fraction III isoenzyme was pooled and dialyzed; from tissue; host or cells: canine heart, soluble supernatant, DEAE cellulose fraction III (800 mM sodium acetate eluate)
T1 sequence (A0A8I3NYE0 1-1135): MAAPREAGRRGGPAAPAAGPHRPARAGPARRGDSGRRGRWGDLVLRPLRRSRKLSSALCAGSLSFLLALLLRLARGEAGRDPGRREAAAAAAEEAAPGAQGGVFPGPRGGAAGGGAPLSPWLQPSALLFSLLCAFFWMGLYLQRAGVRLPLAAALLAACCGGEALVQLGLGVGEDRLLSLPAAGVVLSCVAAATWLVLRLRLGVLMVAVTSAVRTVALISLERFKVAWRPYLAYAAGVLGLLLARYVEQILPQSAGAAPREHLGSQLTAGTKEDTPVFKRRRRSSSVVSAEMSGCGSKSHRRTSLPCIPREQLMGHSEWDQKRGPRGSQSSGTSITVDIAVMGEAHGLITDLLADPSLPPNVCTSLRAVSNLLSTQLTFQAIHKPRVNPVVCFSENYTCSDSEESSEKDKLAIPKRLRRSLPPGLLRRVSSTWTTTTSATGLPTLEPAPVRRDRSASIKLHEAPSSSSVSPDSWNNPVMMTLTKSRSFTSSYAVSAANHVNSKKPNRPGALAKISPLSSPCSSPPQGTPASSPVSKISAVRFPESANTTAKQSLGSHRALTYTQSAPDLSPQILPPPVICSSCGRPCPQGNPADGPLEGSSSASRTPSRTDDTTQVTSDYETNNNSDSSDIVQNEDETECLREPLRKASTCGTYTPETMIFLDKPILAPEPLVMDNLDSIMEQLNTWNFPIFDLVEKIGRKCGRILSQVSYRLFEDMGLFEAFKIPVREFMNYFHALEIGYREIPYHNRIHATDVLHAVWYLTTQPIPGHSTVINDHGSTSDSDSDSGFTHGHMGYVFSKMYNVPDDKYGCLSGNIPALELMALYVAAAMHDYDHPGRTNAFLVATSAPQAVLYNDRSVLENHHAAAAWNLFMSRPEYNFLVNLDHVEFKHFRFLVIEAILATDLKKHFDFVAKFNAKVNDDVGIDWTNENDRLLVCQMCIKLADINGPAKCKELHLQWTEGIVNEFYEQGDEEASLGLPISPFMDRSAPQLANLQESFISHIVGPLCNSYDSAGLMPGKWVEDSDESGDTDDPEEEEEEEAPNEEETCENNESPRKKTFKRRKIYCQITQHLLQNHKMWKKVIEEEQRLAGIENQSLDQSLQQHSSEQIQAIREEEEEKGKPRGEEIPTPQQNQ
Test: Cyclic AMP phosphodiesterase assay with fraction III isoenzyme, comparative testing
Format: biochemical

[1] = Table I summary, canine cardiac PDE fraction III, read-out: PDE III inhibition (IC50)
[2] = canine heart fraction III, 0.1 µM cyclic AMP, read-out: PDE III IC50

Structure (SMILES)	Potency Difference (-vs+), PDE III inhibition (IC50) ((-) isomer versus (+) isomer) [x]	times more potent than the (+) isomer, inhibition of PDE III ((-) isomer versus (+) isomer) [times]	times more potent than the racemate, inhibition of PDE III ((-) isomer versus racemate)	IC50 [1] [µM]	IC50 [2] [µM]
CC1CC(=O)NN=C1c1ccc2c(c1)OCC(=O)N2 (single isomer, unassigned; isomer 6) [(-) isomer, 6-(3,4-dihydro-3-oxo-l,4(2H)-benzoxazin-7-yl)-2,3,4,5-tetrahydro-5-methyl-pyridazin-3-one]	44	~44	approximately 4 times	0.18	0.18
CC1CC(=O)NN=C1c1ccc2c(c1)OCC(=O)N2 (single isomer, unassigned; isomer 6) [(+) isomer, 6-(3,4-dihydro-3-oxo-l,4(2H)-benzoxazin-7-yl)-2,3,4,5-tetrahydro-5-methyl-pyridazin-3-one]	–	–	–	8	8
